{"source": "patent US20090291857A1", "about": "“METHODS TO IDENTIFY INHIBITORS OF THE UNFOLDED PROTEIN RESPONSE” (THE BOARD OF TRUSTEES OF THE LELAND STANFORD JUNIOR …, priority 2006, published 2009)", "test_system": "CHOP/GADD153", "test": "CHOP/GADD153 expression in hypoxic HT1080 cells (Western blot)", "format": "cell-based, human", "conditions": "2.5 μM, hypoxia 6-12 hours", "experimental": "A. Effect of irestatin 9389 on PERK and ATF6 pathways. HT1080 cells were treated with vehicle alone (lanes 1-4) or 2.5 μM irestatin 9389 (lanes 5-8) and cultured under aerobic conditions for 18 hours (N) or shifted to hypoxia for the indicated times. Protein lysates were analyzed by Western blot analysis using antisera specific for ATF6 (top), CHOP/GADD153 (middle) or actin (bottom). Arrow indicates the cleaved, transcriptionally active form of ATF6. B. Cleavage of caspase-3 in irestatin-treated cells under hypoxia. HT1080 cells were cultured in normoxia (N) or under hypoxia for 36 hours (H 36) in absence or presence of irestatin 9389 (2.5 μM). Arrows indicate proteolytically cleaved caspase-3. C. Colony formation assay. HT1080 cells were treated as in B under normoxia (N) or hypoxia for 48 hours (H 48). Cells were harvested, counted, and allowed to grow under normal culture conditions for 11-12 days. Colonies were visualized with crystal violet staining. D. Quantification of clonogenic survival assay. Values represent the mean+/−SEM from at least 4 independent experiments. E. TUNEL staining of cells treated as in C. F. Quantification of TUNEL-positive cells. Values represent the mean+/−SEM from at least 3 experiments. […] Cells were harvested at the indicated times and counted by hemocytometer. Values represent the mean calculated from triplicate experiments +/−SEM. […]"}
{"smiles": "Cc1csc(NC(=O)CSc2nc3c(c(C(F)(F)F)c2C#N)CCC3)n1", "note": "[Compound 9389]", "values": [{"measurement": "expression of CHOP/GADD153", "result": "increased"}]}
